US12459951B2, “Compounds that interact with RAS superfamily proteins for treatment of cancers, inflammatory diseases, rasopathies, and fibrotic disease” (SHY Therapeutics, LLC, priority 2022, dated 2025)

Columns and labels:
[1] = system: MM.1R (expressing wild type KRAS); experiment: Proliferation Assay (Cell Viability Assay); assay type: cell-based; details: Homo sapiens, read-out: MM.1R IC50 (nM) Multiple Myloma
Outline: (§1)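 Cells plated at 2000–5000/well overnight, then treated 2–4 days at 37 °C, 5% CO2 with compound at 10 μM single dose or serial dilutions for IC50, in 0.3% DMSO and 10% FBS. Viability read by CellTiter 96 Aqueous One (MTS); % proliferation inhibition calculated from raw data.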

[2] = system: GP2d (expressing KRas G12D mutant); experiment: Proliferation Assay (Cell Viability Assay); assay type: cell-based; details: Homo sapiens, Proliferation assay, read-out: GP2d IC50 (nM) Colorectal
Outline: as §1

[3] = Kinetic Solubility Assay in pH 7.4 Buffer + 2% DMSO; assay type: physicochemical; details: phosphate-buffered saline pH 7.4 with 2% DMSO, aqueous buffer, kinetic from dmso stock, 25° C., two hours
Outline: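 Compound from 20 mM DMSO stock diluted to nominal 400 μM in PBS pH 7.4 with 2% DMSO, in duplicate, shaken 2 h at 25° C., then filtered. Filtrate quantified by UV absorbance (230-550 nm) against 10-200 μM calibration curves; effective range ~2-400 μM.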

**Q.** Which results are given for Cc1c(-c2ccn(C(C)C)n2)cn2nc(-c3nccn3C)nc(Nc3ccn(C4CC4)n3)c12 [Compound 84, N-(1-Cyclopropyl-1H-pyrazol-3-yl)-6-(1-isopropyl-1H-pyrazol-3-yl)-5-methyl-2-(1-methyl-1H-imidazol-2-yl)pyrrolo[2,1-f][1,2,4]triazin-4-amine]?
**A.** IC50 [1]: < 1 nM; IC50 [2]: 1 to 10 nM; solubility at 2 h [3]: 10 to 30 µM

**Q.** With Cc1c(-c2ccn(C(C)C)n2)cn2nc(-c3nccn3C)nc(Nc3cc4n(n3)CCO4)c12 [Compound 91, N-(6-(1-Isopropyl-1H-pyrazol-3-yl)-5-methyl-2-(1-methyl-1H-imidazol-2-yl)pyrrolo[2,1-f][1,2,4]triazin-4-yl)-2,3-dihydropyrazolo[5,1-b]oxazol-6-amine] as the molecule, how does the solubility at 2 h [3] read?
**A.** > 30 µM
